Experimental data published in patent US12485140B2, “Transmission prevention of viruses with application of antiseptic composition” (Solventum Intellectual Properties Company, priority 2019, dated 2025).

Tests used:
SARS-CoV-2 virus = test: In vitro viricidal assay against SARS-CoV-2 (CCID50 end-point titer on Vero 76 cells); conditions: 22 ± 2° C.; for Log Reduction Value (LRV): compared to the virus control; for Virus Titer: mean of 3 replicates
Vero 76 cells = conditions: African green monkey

## CCO [CE19, Ethanol]
SARS-CoV-2 virus; incubation time 0.5 min
  Log Reduction Value (LRV): 2.4
  Virus Titer: <1.7 Log10 CCID50 of virus per mL
SARS-CoV-2 virus; incubation time 1 min
  Log Reduction Value (LRV): 2.1
  Virus Titer: <1.7 Log10 CCID50 of virus per mL
SARS-CoV-2 virus; incubation time 2 min
  Log Reduction Value (LRV): 2.3
  Virus Titer: <1.7 Log10 CCID50 of virus per mL
Vero 76 cells
  dilutions of the neutralized sample showing toxicity toward Vero 76 cells: 1/10 dilution
